{"source": "patent US20220396580A1", "about": "“TRICYCLIC DILACTONE COMPOUND, AND PRODUCTION METHOD AND USE THEREOF” (SEOUL NATIONAL UNIVERSITY R&DB FOUNDATION, priority 2020, published 2022)", "key": {"APP/PS1 transgenic mice": {"tested_on": "APP/PS1 transgenic mice", "assay": "Amyloid-beta aggregates in brain tissue of APP/PS1 transgenic mice (thioflavine S / GFAP staining)", "format": "in vivo, mouse", "conditions": "8 mg/kg/day intraperitoneal for 3 weeks", "protocol": "First, APP/PS1 transgenic mice (7.5-month-old, male, Jackson Laboratory, 9 to 10 mice/group) to which the genes of AD patients were injected were prepared. In the APP/PS1 transgenic mice, human amyloid-beta is expressed at a high level, and Alzheimer-like plaques are formed in the brain.\nThe prepared mice were intraperitoneally administered daily with rhizolutin at a dose of 8 mg/body weight (kg)/day for 3 weeks. As a negative control group, the prepared mice were intraperitoneally administered with a vehicle only.\nAfterwards, the mouse brain was removed, and changes in amyloid-beta aggregates (in the form of oligomer or fibril) as AD biomarkers in the brain tissue were measured."}, "human A131-42 monomer [1]": {"target": "T1, human A131-42 monomer (Homo sapiens, UniProt P05067)", "T1 construct": "UniProt KB-P05067, a.a; 672 to 713", "T1 sequence (P05067 672-713)": "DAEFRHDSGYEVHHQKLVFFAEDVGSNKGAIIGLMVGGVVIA", "assay": "Inhibition of amyloid-beta aggregation (thioflavine-T fluorescence)", "format": "biochemical", "conditions": "25 μM amyloid-beta, 1 mM rhizolutin, 37° C., 120 hours", "protocol": "An amyloid-beta solution was prepared by dissolving human A131-42 monomer (UniProt KB-P05067, a.a. 672 to 713) in DMSO to have a concentration of 10 mM. Then, the amyloid-beta solution was diluted with distilled water to prepare a solution having a concentration of 100 μM. Meanwhile, thioflavine-T (Sigma-Aldrich) was dissolved in 50 mM glycin buffer (pH 8.5) to have a concentration of 5 mM. Then, the resulting solution was diluted with 50 mM glycin buffer (pH 8.5) to have a concentration of 5 μM, and stored light-blocked in a dark room. To verify the inhibitory activity of rhizolutin on the amyloid-beta aggregation, the amyloid-beta solution was added to 1.5 mL microtubes to a concentration of 25 μM, and rhizolutin was added thereto at a concentration of 1 mM, followed by incubation at 37° C. for 120 hours. […] After a reaction was allowed for 5 minutes at room temperature in the darkroom, fluorescence was measured at an excitation wavelength of 450 nm and an emission wavelength of 485 nm by using a multi-mode microplate reader. Based on the fluorescence intensity of the group (control group) in which only amyloid-beta was treated and aggregated for 120 hours, the fluorescence intensity (%) of each group was calculated, and results are shown in FIG. 3A (one-way ANOVA test followed by Bonferroni's post-hoc comparison test, mean±SEM, ***: p<0.001)."}, "human A131-42 monomer [2]": {"target": "T1, human A131-42 monomer", "assay": "Disaggregation of amyloid-beta aggregates (thioflavine-T fluorescence)", "format": "biochemical", "protocol": "An amyloid-beta solution was prepared by dissolving human A131-42 monomer (UniProt KB-P05067, a.a. 672 to 713) in DMSO to have a concentration of 10 mM. Then, the amyloid-beta solution was diluted with distilled water to prepare a solution having a concentration of 100 μM. Meanwhile, thioflavine-T (Sigma-Aldrich) was dissolved in 50 mM glycin buffer (pH 8.5) to have a concentration of 5 mM. Then, the resulting solution was diluted with 50 mM glycin buffer (pH 8.5) to have a concentration of 5 μM, and stored light-blocked in a dark room. In addition, to verify the activity of rhizolutin on disaggregation of the amyloid-beta aggregation, the amyloid-beta solution was added to a 1.5 mL microtube to a concentration of 25 μM and incubated at 37° C. for 72 hours. Then, 1 mM of rhizolutin was added to each microtube, followed by incubation at 37° C. for 72 hours. […] Then, fluorescence intensity was measured at an excitation wavelength of 450 nm and an emission wavelength of 485 nm by using a multi-mode microplate reader. Based on the fluorescence intensity of the group (control group) in which only amyloid-beta was treated and aggregated for 72 hours, the fluorescence intensity (%) of each group was calculated, and results are shown in FIG. 3B (mean±SEM, *: p<0.05, ***: p<0.001)."}, "[3]": {"tested_on": "HT-22 mouse hippocampal neuronal cells and BV2 microglial cells", "assay": "Immunoblotting of cleaved caspase-3 and Bcl-2 in cells treated with amyloid-beta aggregates", "format": "cell-based", "conditions": "amyloid-beta aggregates and 20 μM rhizolutin together, 24 hours", "from_the_text": "To verify the inhibitory activity of rhizolutin on the neurotoxicity of the amyloid-beta aggregates, changes in apoptosis-related biomarkers after exposing neurons to the neurotoxicity of the amyloid-beta aggregates were observed. Here, cleaved caspase-3, which is an apoptosis-inducing factor, and B-cell lymphoma 2 (Bcl-2), which inhibits apoptosis, were used as the biomarkers.\nHT-22 mouse hippocampal neuronal cells and BV2 microglial cells were inoculated into a plate in a predetermined number. To each of the HT-22 cell line and the BV2 cell line, an amyloid-beta solution prepared in the same manner as in Example 2-2 was added at a concentration of […], followed by incubation at 37° C. for 24 hours. Afterwards, 20 μM of rhizolutin was added to each microtube, followed by incubation with amyloid-beta in a final concentration of 20 μM at 37° C. for 24 hours. As a negative control group, a group without rhizolutin and the amyloid-beta protein was used.\nCleaved caspase-3 and Bcl-2, which are apoptosis-related biomarkers, were identified by immunoblotting, and images thereof are shown in FIG. 5A."}, "Tau protein [4]": {"tested_on": "Tau protein", "assay": "Inhibition of formation of tau aggregates (thioflavin T fluorescence)", "format": "biochemical", "conditions": "1 mM rhizolutin vs 20 mM EPPS", "protocol": "Tau protein was prepared at a concentration of 1 mg/mL, and as described in Example 2-3, the prepared tau protein was added to a 1.5 mL microtube at a concentration of 0.5 mg/mL, and 1 mM of rhizolutin and 20 mM of EPPS were added thereto, followed by incubation at 37° C. for 120 hours.\n(§1) Thioflavin T was added to the reaction, and the fluorescence intensity was measured at an excitation wavelength of 450 nm and an emission wavelength of 485 nm. As a negative control group, a vehicle without the tau protein and rhizolutin was used.\n(§2) Based on the fluorescence intensity of the group in which only the tau protein was treated (positive control group), the fluorescence intensity (%) of each group was calculated, and results are shown in FIGS. 6A and 6B (mean±SEM, *: p<0.01, ***: p<0.001)."}, "Tau protein [5]": {"tested_on": "Tau protein", "assay": "Disaggregation of tau aggregates (thioflavin T fluorescence)", "format": "biochemical", "conditions": "1 mM rhizolutin vs 20 mM EPPS", "protocol": "Meanwhile, the tau protein was added to a 1.5 mL microtube at a concentration of 0.5 mg/mL, and incubated at 37° C. for 48 hours. Then, rhizolutin was added at a concentration of 1 mM, and incubated at 37° C. for 72 hours. To compare the efficacy, EPPS was added at a concentration of 20 mM, and incubated under the same conditions.\nas §1, §2"}}, "data": [{"smiles": "CC[C@H]1C[C@@H]2/C(C)=C/[C@@H]3OC(=O)C[C@@H](O)C[C@H]3/C=C/C(C)=C\\[C@H]2C(=O)O1", "note": "[rhizolutin]", "values": [{"measurement": "GFAP, biomarker of neuroinflammation (astrocytosis around the plaques)", "setting": "APP/PS1 transgenic mice; brain tissue", "result": "also decreased"}, {"measurement": "number of amyloid-beta plaques in the hippocampus of the brain", "setting": "APP/PS1 transgenic mice; thioflavine S, vs negative control group", "result": "decrease in the number of amyloid-beta plaques"}, {"measurement": "formation of amyloid-beta aggregates (oligomer or fibril)", "setting": "human A131-42 monomer [1]", "result": "significantly inhibited"}, {"measurement": "disaggregation of amyloid-beta aggregates (oligomer or fibril)", "setting": "human A131-42 monomer [2]; 25 μM amyloid-beta pre-aggregated 72 hours, then 1 mM rhizolutin 72 hours, 37° C.", "result": "disaggregated the amyloid-beta aggregates"}, {"measurement": "amyloid-beta disaggregation activity compared with EPPS", "setting": "human A131-42 monomer [2]; 1 mM rhizolutin vs 20 mM EPPS, same conditions", "result": "better than that of EPPS"}, {"measurement": "expression of Bcl-2", "setting": "[3]", "result": "the expression of Bcl-2 increased"}, {"measurement": "expression of cleaved caspase-3", "setting": "[3]", "result": "the expression of cleaved caspase-3 decreased"}, {"measurement": "inhibiting formation of tau aggregates compared with EPPS", "setting": "Tau protein [4]", "result": "better effects"}, {"measurement": "disaggregating tau aggregates compared with EPPS", "setting": "Tau protein [5]", "result": "better effects"}]}]}
